The results in this text go back to patent publication US10004701B2, “Methods and compositions for treating infection” (UNIVERSITY OF ROCHESTER, priority 2012, dated 2018).

Assay in all cases: AK assay 384-well format, Prestwick library screening
One assay relates to E. coli. It counts as cell-based, Escherichia coli. The following applies: 50 μM final drug concentration; for fold induction at 50 µM: Escherichia coli, 3 h.
The next assay concerns K. pneumoniae. It counts as cell-based, Klebsiella pneumoniae. The following applies: 50 μM final drug concentration; for fold induction at 50 µM: Klebsiella pneumoniae, 3 h.
The next assay has as its system E. faecium. The format is cell-based, Enterococcus faecium. The following applies: 50 μM final drug concentration; for fold induction at 50 µM: Enterococcus faecium, 3 h.
For assay [1], the system named is A. baumannii strain 98-37-09. The format is cell-based, Acinetobacter baumannii. The following applies: 50 μM final drug concentration; for fold induction at 50 µM: Acinetobacter baumannii, 983709, 3 h.
The subject of assay [2] is S. aureus strain USA300-0114. The format is cell-based, Staphylococcus aureus. The following applies: 50 μM final drug concentration; for fold induction at 50 µM: Staphylococcus aureus, USA300, 3 h.
A further assay has as its system E. cloacae. It counts as cell-based, Enterobacter cloacae. The following applies: 50 μM final drug concentration; for fold induction at 50 µM: Enterobacter cloacae, 3 h.
For the next assay, the system named is P. aeruginosa. It counts as cell-based, Pseudomonas aeruginosa. The following applies: 50 μM final drug concentration; for fold induction at 50 µM: Pseudomonas aeruginosa, 3 h.
The mark [3] stands for this setting: cutoff for positive-scoring molecules 3-fold increase.
Where [4] appears, read: planktonic E. coli, positive cutoff 3-fold increase, read-out: AK-based Prestwick library screening result, E. coli (fold increase in extracellular AK activity).
Setting [5] is: planktonic K. pneumoniae, positive cutoff 3-fold increase, read-out: AK-based Prestwick library screening result, K. pneumoniae (fold increase in extracellular AK activity).
Setting [6] is: planktonic E. faecium, positive cutoff 3-fold increase, read-out: AK-based Prestwick library screening result, E. faecium (fold increase in extracellular AK activity).
Setting [7] is: planktonic A. baumannii, positive cutoff 3-fold increase, read-out: AK-based Prestwick library screening result, A. baumannii (fold increase in extracellular AK activity).
Setting [8] is: planktonic S. aureus, positive cutoff 3-fold increase, read-out: AK-based Prestwick library screening result, S. aureus (fold increase in extracellular AK activity).
The mark [9] stands for this setting: planktonic E. cloacae, positive cutoff 3-fold increase, read-out: AK-based Prestwick library screening result, E. cloacae (fold increase in extracellular AK activity).
[10] abbreviates: planktonic P. aeruginosa, positive cutoff 3-fold increase, read-out: AK-based Prestwick library screening result, P. aeruginosa (fold increase in extracellular AK activity).

Each structure is given as a SMILES string. Where a name gives a salt, the structure may show the parent alone. Read-outs that look alike come from different tables or passages of the source.

As for `CCC(=O)O[C@@](Cc1ccccc1)(c1ccccc1)[C@@H](C)CN(C)C` [Levopropoxyphene napsylate], the fold induction at 50 µM with E. coli ([…], read-out: AK-based Prestwick Library Screening Results, E. coli (fold increase in extracellular AK activity)) is 0.6; in the assay with K. pneumoniae ([…], read-out: AK-based Prestwick Library Screening Results, K. pneumoniae (fold increase in extracellular AK activity)), 0.6; in the assay on E. faecium ([…], read-out: AK-based Prestwick Library Screening Results, E. faecium (fold increase in extracellular AK activity)), 1; in assay [1] ([…], read-out: AK-based Prestwick Library Screening Results, A. baumannii (fold increase in extracellular AK activity)), 0.7; in assay [2] ([…], read-out: AK-based Prestwick Library Screening Results, S. aureus (fold increase in extracellular AK activity)), 0.6; in the assay on E. cloacae ([…], read-out: AK-based Prestwick Library Screening Results, E. cloacae (fold increase in extracellular AK activity)), 0.7. In addition, the fold induction at 50 µM with P. aeruginosa ([…], read-out: AK-based Prestwick Library Screening Results, P. aeruginosa (fold increase in extracellular AK activity)) came out at 0.7.

`CCO.C[C@H]1c2cccc(O)c2C(O)=C2C(=O)[C@]3(O)C(O)=C(C(N)=O)C(=O)[C@@H](N(C)C)[C@@H]3[C@@H](O)[C@@H]21.C[C@H]1c2cccc(O)c2C(O)=C2C(=O)[C@]3(O)C(O)=C(C(N)=O)C(=O)[C@@H](N(C)C)[C@@H]3[C@@H](O)[C@@H]21.Cl.Cl.O` [Doxycycline hyclate]: in the assay with E. coli (setting [3]), the “AK-based Prestwick Library Screening Results, E. coli (fold increase in extracellular AK activity)” value turned out to be 2.0. Moreover, in the assay with K. pneumoniae (setting [3]), the “AK-based Prestwick Library Screening Results, K. pneumoniae (fold increase in extracellular AK activity)” value is 0.3. Moreover, the “AK-based Prestwick Library Screening Results, E. faecium (fold increase in extracellular AK activity)” value in the assay with E. faecium (setting [3]) was determined as 1.1. Moreover, the “AK-based Prestwick Library Screening Results, A. baumannii (fold increase in extracellular AK activity)” value in assay [1] (setting [3]) is recorded as 3.4. Moreover, the “AK-based Prestwick Library Screening Results, S. aureus (fold increase in extracellular AK activity)” value in assay [2] (setting [3]) was found to be 9.4. Moreover, in the assay on E. cloacae (setting [3]), the “AK-based Prestwick Library Screening Results, E. cloacae (fold increase in extracellular AK activity)” value is given as 1.5. Besides, the “AK-based Prestwick Library Screening Results, P. aeruginosa (fold increase in extracellular AK activity)” value with P. aeruginosa (setting [3]) is on record as 0.7.

`COc1ccc2c(c1O)-c1c(OC)c(OC)cc3c1[C@H](C2)N(C)CC3` [Isocorydine (+)]: the “AK-based Prestwick Library Screening Results, E. coli (increase in extracellular AK activity)” value in the assay on E. coli (planktonic E. coli, cutoff for positive-scoring molecules 3-fold increase) is recorded as 0.9. Also, in the assay on K. pneumoniae (planktonic K. pneumoniae, cutoff for positive-scoring molecules 3-fold increase), the “AK-based Prestwick Library Screening Results, K. pneumoniae (increase in extracellular AK activity)” value was determined as 0.7. Besides, in the assay on E. faecium (planktonic E. faecium, cutoff for positive-scoring molecules 3-fold increase), the “AK-based Prestwick Library Screening Results, E. faecium (increase in extracellular AK activity)” value is on record as 0.9. In assay [1] (planktonic A. baumannii, cutoff for positive-scoring molecules 3-fold increase), the “AK-based Prestwick Library Screening Results, A. baumannii (increase in extracellular AK activity)” value came to 0.9. The “AK-based Prestwick Library Screening Results, S. aureus (increase in extracellular AK activity)” value in assay [2] (planktonic S. aureus, cutoff for positive-scoring molecules 3-fold increase) is 0.7. Further, the “AK-based Prestwick Library Screening Results, E. cloacae (increase in extracellular AK activity)” value in the assay on E. cloacae (planktonic E. cloacae, cutoff for positive-scoring molecules 3-fold increase) worked out at 1.3. For the same compound, the “AK-based Prestwick Library Screening Results, P. aeruginosa (increase in extracellular AK activity)” value in the assay with P. aeruginosa (planktonic P. aeruginosa, cutoff for positive-scoring molecules 3-fold increase) turned out to be 0.8.

As for `CC[N+](C)(CC)CCOC(=O)C1c2ccccc2Oc2ccccc21` [Methantheline bromide], the fold induction at 50 µM is 0.9 in the assay on E. coli (setting [4]); 0.8 with K. pneumoniae (setting [5]); 0.9 in the assay on E. faecium (setting [6]); 0.8 in assay [1] (setting [7]); 0.7 in assay [2] (setting [8]); 1.1 in the assay with E. cloacae (setting [9]). Moreover, the fold induction at 50 µM in the assay with P. aeruginosa (setting [10]) came to 0.9.

On to `CO/N=C(\C(=O)N[C@@H]1C(=O)N2C(C(=O)O)=C(C[N+]3(C)CCCC3)CS[C@H]12)c1csc(N)n1` [Cefepime hydrochloride], for which the fold induction at 50 µM with E. coli (setting [4]) was determined as 19.3; in the assay with K. pneumoniae (setting [5]), 4.9; in the assay with E. faecium (setting [6]), 1; in assay [1] (setting [7]), 3.4; in assay [2] (setting [8]) it was 3.1; with E. cloacae (setting [9]), 1.9. The fold induction at 50 µM in the assay on P. aeruginosa (setting [10]) worked out at 15.6.
